Reference: the NIST ThermoML archive (doi:10.1016/j.tca.2014.10.001)
± gives the expanded uncertainty stated by the source.

Assay: mn = molality of the nth substance listed, in mol/kg
Settings: 100 kPa, Liquid; for electrical conductivity: Alternating current cell with electrodes; for speed of sound: Frequency=3 MHz, Sing-around technique in a fixed-path interferometer; for mass density: Vibrating tube method

CCCCn1cc[n+](C)c1C.F[B-](F)(F)F [1-butyl-2,3-dimethylimidazolium tetrafluoroborate] + O
Settings	electrical conductivity [S/m]	mass density [kg/m3]	speed of sound [m/s]
288.15 K, m1 = 0.03	0.229 ± 0.018	–	–
288.15 K, m1 = 0.0308	–	1000.29 ± 0.11	1471.8 ± 1.2
288.15 K, m1 = 0.0312	0.236 ± 0.019	–	–
288.15 K, m1 = 0.0324	0.245 ± 0.02	–	–
288.15 K, m1 = 0.0338	0.256 ± 0.021	–	–
288.15 K, m1 = 0.0353	0.265 ± 0.021	–	–
288.15 K, m1 = 0.0369	0.276 ± 0.022	–	–
288.15 K, m1 = 0.0386	0.288 ± 0.023	–	–
288.15 K, m1 = 0.0406	0.303 ± 0.024	–	–
288.15 K, m1 = 0.04107	–	1000.68 ± 0.11	1474.2 ± 1.2
288.15 K, m1 = 0.0427	0.319 ± 0.026	–	–
288.15 K, m1 = 0.0451	0.336 ± 0.027	–	–
288.15 K, m1 = 0.0477	0.355 ± 0.028	–	–
288.15 K, m1 = 0.0507	0.375 ± 0.03	–	–
288.15 K, m1 = 0.05137	–	1001.08 ± 0.11	1476.5 ± 1.2
288.15 K, m1 = 0.0541	0.399 ± 0.032	–	–
288.15 K, m1 = 0.058	0.427 ± 0.034	–	–
288.15 K, m1 = 0.06162	–	1001.46 ± 0.11	1478.6 ± 1.2
288.15 K, m1 = 0.0624	0.457 ± 0.037	–	–
288.15 K, m1 = 0.0677	0.491 ± 0.039	–	–
288.15 K, m1 = 0.07	0.508 ± 0.041	–	–
288.15 K, m1 = 0.0725	0.526 ± 0.042	–	–
288.15 K, m1 = 0.0752	0.542 ± 0.043	–	–
288.15 K, m1 = 0.0781	0.564 ± 0.045	–	–
288.15 K, m1 = 0.0812	0.586 ± 0.047	–	–
288.15 K, m1 = 0.08198	–	1002.23 ± 0.11	1482.5 ± 1.2
288.15 K, m1 = 0.0846	0.608 ± 0.049	–	–
288.15 K, m1 = 0.0882	0.634 ± 0.051	–	–
288.15 K, m1 = 0.0922	0.661 ± 0.053	–	–
288.15 K, m1 = 0.0966	0.688 ± 0.055	–	–
288.15 K, m1 = 0.1014	0.713 ± 0.057	–	–
288.15 K, m1 = 0.1024	–	1002.99 ± 0.11	1485.2 ± 1.2
288.15 K, m1 = 0.1068	0.745 ± 0.06	–	–
288.15 K, m1 = 0.1127	0.772 ± 0.062	–	–
288.15 K, m1 = 0.1193	0.806 ± 0.065	–	–
288.15 K, m1 = 0.1231	–	1003.74 ± 0.11	1486.4 ± 1.2
288.15 K, m1 = 0.1267	0.846 ± 0.068	–	–
288.15 K, m1 = 0.1352	0.891 ± 0.071	–	–
288.15 K, m1 = 0.1436	–	1004.47 ± 0.11	1487.1 ± 1.2
288.15 K, m1 = 0.1448	0.941 ± 0.075	–	–
288.15 K, m1 = 0.1559	0.997 ± 0.08	–	–
288.15 K, m1 = 0.164	–	1005.19 ± 0.11	1487.7 ± 1.2
288.15 K, m1 = 0.1688	1.06 ± 0.085	–	–
288.15 K, m1 = 0.1841	1.14 ± 0.091	–	–
288.15 K, m1 = 0.1846	–	1005.91 ± 0.11	1488.2 ± 1.2
288.15 K, m1 = 0.2025	1.23 ± 0.098	–	–
288.15 K, m1 = 0.205	–	1006.62 ± 0.11	1488.7 ± 1.2
298.15 K, m1 = 0.0306	0.247 ± 0.02	–	–
298.15 K, m1 = 0.031	0.249 ± 0.02	–	–
298.15 K, m1 = 0.0323	0.259 ± 0.021	–	–
298.15 K, m1 = 0.0337	0.27 ± 0.022	–	–
298.15 K, m1 = 0.0352	0.28 ± 0.022	–	–
298.15 K, m1 = 0.0368	0.291 ± 0.023	–	–
298.15 K, m1 = 0.0387	0.305 ± 0.025	–	–
298.15 K, m1 = 0.0407	0.319 ± 0.025	–	–
298.15 K, m1 = 0.0429	0.334 ± 0.027	–	–
298.15 K, m1 = 0.0454	0.351 ± 0.028	–	–
298.15 K, m1 = 0.0472	0.366 ± 0.029	–	–
298.15 K, m1 = 0.0491	0.379 ± 0.03	–	–
298.15 K, m1 = 0.0513	0.395 ± 0.032	–	–
298.15 K, m1 = 0.0536	0.413 ± 0.033	–	–
298.15 K, m1 = 0.0562	0.432 ± 0.035	–	–
298.15 K, m1 = 0.0575	0.441 ± 0.035	–	–
298.15 K, m1 = 0.059	0.45 ± 0.036	–	–
298.15 K, m1 = 0.0605	0.462 ± 0.037	–	–
298.15 K, m1 = 0.0621	0.472 ± 0.038	–	–
298.15 K, m1 = 0.0637	0.485 ± 0.039	–	–
298.15 K, m1 = 0.0655	0.498 ± 0.04	–	–
298.15 K, m1 = 0.0674	0.513 ± 0.041	–	–
298.15 K, m1 = 0.0694	0.528 ± 0.042	–	–
298.15 K, m1 = 0.0715	0.54 ± 0.043	–	–
298.15 K, m1 = 0.0737	0.557 ± 0.045	–	–
298.15 K, m1 = 0.0761	0.575 ± 0.046	–	–
298.15 K, m1 = 0.0786	0.595 ± 0.048	–	–
298.15 K, m1 = 0.0813	0.615 ± 0.049	–	–
298.15 K, m1 = 0.0842	0.636 ± 0.051	–	–
298.15 K, m1 = 0.0874	0.658 ± 0.053	–	–
298.15 K, m1 = 0.0907	0.682 ± 0.055	–	–
298.15 K, m1 = 0.0943	0.708 ± 0.057	–	–
298.15 K, m1 = 0.0983	0.735 ± 0.059	–	–
298.15 K, m1 = 0.1026	0.761 ± 0.061	–	–
